According to patent publication US20080249075A1, “C11 Modified Retrosteroids as Progesterone Receptor Modulator Compounds” (Solvay Pharmaceuticals GmbH, priority 2007, published 2008):

Experiments:
[1] = target: T1, human progesterone receptor (Homo sapiens, UniProt P06401); assay: Progesterone receptor binding assay, human PR (CEREP); conditions: 3H-R5020 as ligand, MCF7 cells as source of PR; for Ki: read-out: Human PR binding (pKi) (converted)
T1 sequence (P06401 679-933 limits assumed): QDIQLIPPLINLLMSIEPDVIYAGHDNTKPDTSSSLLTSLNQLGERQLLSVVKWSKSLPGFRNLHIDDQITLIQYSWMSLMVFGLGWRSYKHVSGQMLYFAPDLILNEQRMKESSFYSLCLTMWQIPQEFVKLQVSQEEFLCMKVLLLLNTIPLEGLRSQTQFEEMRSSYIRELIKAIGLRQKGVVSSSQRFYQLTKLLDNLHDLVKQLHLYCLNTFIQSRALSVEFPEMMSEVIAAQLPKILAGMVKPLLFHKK
Experimental: The progesterone receptor (PR) binding assays were performed at CEREP (Celle I'Evescault, France).
The binding to the human progesterone receptor (Assay Cat No: Progesterone receptor-814h) was be measured using 3H-R5020 as ligand and MCF7 cells as the source of progesterone receptor. The assay is performed as described by Eckert & Katzenellenbogen [1982]. The binding to the bovine progesterone receptor (Assay Cat No: Progesterone receptor-814) was measured using 3H-R5020 as ligand and uterus tissue as the source of progesterone receptor. The assay was performed as described by Hurd & Moudgil [1988].
The results of the receptor binding assay are presented as the individual pKi values, which were determined by measuring the binding activity to the human or bovine PR, as indicated, for a concentration range of each compound.

[2] = tested on: T47D human breast carcinoma cells; assay: cells; assay type: cell-based; conditions: for activation at 0.1 µM / inhibition at 0.1 µM / IC50 / EC50: Homo sapiens, T47D; for activation at 0.1 µM: 48 h, read-out: PS [100 nM] (% stimulation); for inhibition at 0.1 µM: read-out: PI [100 nM] (% inhibition); for IC50: read-out: pIC50 (converted); for PS [100 nM] (% stimulation): agonistic mode, alkaline phosphatase induction (100% = 1 nM Dydrogesterone); for PS [100 nM] (% stimulation) / PI [100 nM] (% inhibition): compound 100 nM; for PI [100 nM] (% inhibition): antagonistic mode, inhibition of alkaline phosphatase induction by 1 nM Dydrogesterone; for pIC50: antagonistic potency against 1 nM Dydrogesterone; for EC50: read-out: pEC50 (converted)
Experimental: The progesterone-dependent modulation of alkaline phosphatase expression was examined using T47D human breast carcinoma cells [Keydar et al., 1979]. The assay was performed as previously described by Di Lorenzo et al. (1991) with the modification of using Dydrogesterone as comparative progestin to determine the antagonistic and agonistic activity.
The cell line was purchased from CLS Cell Lines Service (Hildastrasse 21, D-69214 Eppelheim, Germany). In brief, the cells were plated in 96-well plates at 40,000 cells/well using the following growth medium: RPMI 1640 with: 10% FBS, 1 mM Sodium Pyruvat MEM, 10 mM Hepes, 0.01 mg/ml Bovine insulin, and 25 μg/ml Gentamycin. After 24 h of cultivation, the growth medium was replaced with medium containing 2% fetal bovine serum and the test compounds were added to each well to achieve the appropriate compound concentration: For determination of agonistic activity only the test compounds were added; for measurement of antagonistic activity the test compounds and additionally Dydrogesterone as standard progesterone agonist was added to a final concentration of 1 nM. After 48 h of cultivation, the medium was removed and the cells were washed with 200 μl of Dulbecco's phosphate-buffered saline without calcium and magnesium (PBS(−)). Then the cells were fixed with 3.7% formaldehyde in phosphate-buffered saline for 15 min at 22° C. After washing the cells with PBS, 100 μl of a […] (pNPP) solution (pNPP Liquid Substrate System; Sigma) was added to each well and incubated for 2 h at room temperature protected from light. The reaction was stopped with 100 μl 1N NaOH and the absorbance was measured with a spectrophotometer (Victor, Perkin Elmer) at 405 nm. The results are expressed as alkaline phosphatase induction (as 100% with 1 nM Dydrogesterone) or inhibition (against alkaline phosphatase induction by 1 nM Dydrogesterone) at a certain concentration of test compound.
% stimulation=(effect compound−basal)/(effect dydro 1 nM−basal)*100% inhibition of 1 nM Dydro=100*{1-[(effect compound−basal)/(effect dydro 1 nM−basal)]}
For each compound the % inhibition (PI) and % stimulation (PS), respectively, at a compound concentration of 100 nM was determined. For selected compounds, the corresponding values were measured for several different concentrations, and subsequently were plotted against the concentration of the test compound, and used to calculate the IC50 value (for the antagonistic potency; the IC50 value is the concentration (nM), required to reduce the maximal response by 50%) and EC50 values (for the agonistic potency; the EC50 value is the effective concentration (nM) that produced 50% of the maximum response), respectively.

Compound `CC(=O)[C@H]1CC[C@H]2[C@@H]3C=CC4=CC(=O)CC[C@@]4(C)[C@@H]3[C@@H](OC(=O)Nc3ccc4cn[nH]c4c3)C[C@]12C` [compound 41, (1H-Indazol-6-yl)-carbamic aciddydrogesterone-11-yl ester] has a Ki [1] of 316 nM, an activation at 0.1 µM [2] of 1% and an inhibition at 0.1 µM [2] of 96%. The IC50 [2] was 6.31 nM.
For `CC(=O)[C@H]1CC[C@H]2[C@@H]3C=CC4=CC(=O)CC[C@@]4(C)[C@@H]3[C@@H](OC(=O)Nc3cnc4ccccc4c3)C[C@]12C` [compound 51, Quinolin-3-yl-carbamic aciddydrogesterone-11-yl ester], the Ki [1] was 398 nM, the activation at 0.1 µM [2] was 5% and the inhibition at 0.1 µM [2] was 59%. For the same compound, the IC50 [2] was 100 nM.
In the case of `CC(=O)[C@H]1CC[C@H]2[C@@H]3C=CC4=CC(=O)CC[C@@]4(C)[C@@H]3C(OC(=O)Nc3ccc4cnn(C)c4c3)C[C@]12C` (some centres unmarked) [compound 99, (1-Methyl-1H-indazol-6-yl)-carbamic acid dydrogesterone-11-yl ester], the “Human PR binding (pKi)” value [1] is reported as 6.3, the “PS [100 nM] (% stimulation)” value ([2]; T47D cells) is reported as 0.0% and the “PI [100 nM] (% inhibition)” value ([2]; T47D cells) is reported as 70.0%. The pIC50 ([2]; T47D cells) was 7.1.
Work on `CC(=O)[C@H]1CC[C@H]2[C@@H]3C=CC4=CC(=O)CC[C@@]4(C)[C@@H]3[C@@H](OC(=O)Nc3ccc4c(c3)OCO4)C[C@]12C` [Compound No. 13, Benzo[1,3]dioxol-5-yl-carbamic acid dydrogesterone-11β-yl ester] yielded a Ki [1] of at least 631 nM, an activation at 0.1 µM [2] of 5% and an inhibition at 0.1 µM [2] of 73%. For the same compound, the EC50 [2] was 398 nM and the IC50 [2] was 31.6 nM.
`COc1cc(NC(=O)O[C@H]2C[C@]3(C)[C@@H](C(C)=O)CC[C@H]3[C@@H]3C=CC4=CC(=O)CC[C@@]4(C)[C@@H]32)cc(OC)c1OC` [Compound No. 24, (3,4,5-Trimethoxy-phenyl)-carbamic acid dydrogesterone-11β-yl ester] showed a Ki [1] of 200 nM, an activation at 0.1 µM [2] of 0% and an inhibition at 0.1 µM [2] of 88%. For the same compound, the IC50 [2] was 50.1 nM.
For `CC(=O)[C@H]1CC[C@H]2[C@@H]3C=CC4=CC(=O)CC[C@@]4(C)[C@@H]3C(OC(=O)Nc3ccc4c(c3)NC(=O)C(C)S4)C[C@]12C` (some centres unmarked) [compound 102, (2-Methyl-3-oxo-3,4-dihydro-2H-benzo[1,4]thiazin-6-yl)-carbamic acid dydrogesterone-11-yl ester], the “Human PR binding (pKi)” value [1] was 6.3, the “PS [100 nM] (% stimulation)” value ([2]; T47D cells) was 0.0% and the “PI [100 nM] (% inhibition)” value ([2]; T47D cells) was 98.0%. It also gave a pIC50 ([2]; T47D cells) of 8.1.
`CSc1cccc(NC(=O)O[C@H]2C[C@]3(C)[C@@H](C(C)=O)CC[C@H]3[C@@H]3C=CC4=CC(=O)CC[C@@]4(C)[C@@H]32)c1` [compound 92, (3-Methylsulfanyl-phenyl)-carbamic acid dydrogesterone-11-yl ester] was tested, and the Ki [1] was at least 631 nM, the activation at 0.1 µM [2] was 1% and the inhibition at 0.1 µM [2] was 55%. It also gave an IC50 [2] of 100 nM.
For `CC(=O)c1cccc(NC(=O)OC2C[C@]3(C)[C@@H](C(C)=O)CC[C@H]3[C@@H]3C=CC4=CC(=O)CC[C@]4(C)[C@@H]23)c1` (some centres unmarked) [compound 81, (3-Acetyl-phenyl)-carbamic aciddydrogesterone-11-yl ester], the “Human PR binding (pKi)” value [1] was 6.6, the “PS [100 nM] (% stimulation)” value ([2]; T47D cells) was 1.0% and the “PI [100 nM] (% inhibition)” value ([2]; T47D cells) was 72.0%. For the same compound, the pIC50 ([2]; T47D cells) was 7.3.
`COc1ccc(CNC(=O)O[C@H]2C[C@]3(C)[C@@H](C(C)=O)CC[C@H]3[C@@H]3C=CC4=CC(=O)CC[C@@]4(C)[C@@H]32)cc1` [compound 55, (4-Methoxy-benzyl)-carbamicacid dydrogesterone-11-yl ester] was tested, and the Ki [1] was 100 nM, the activation at 0.1 µM [2] was 143% and the inhibition at 0.1 µM [2] was -79%. The EC50 [2] was 50.1 nM.
`CCO[C@]1(C(C)=O)CC[C@H]2[C@@H]3C=CC4=CC(=O)CC[C@@]4(C)[C@@H]3[C@@H](OC(=O)Nc3ccc4c(c3)OCO4)C[C@@]21C` [Compound No. 34, Benzo[1,3]-dioxol-5-yl-carbamic acid 17-ethoxy-dydrogesterone-11β-yl este] was tested, and the Ki [1] was 126 nM, the activation at 0.1 µM [2] was 95% and the inhibition at 0.1 µM [2] was 5%.
For `CC(=O)[C@H]1CC[C@H]2[C@@H]3C=CC4=CC(=O)CC[C@@]4(C)[C@@H]3C(OC(=O)NCc3ccc4c(c3)OCO4)C[C@]12C` (some centres unmarked) [compound 42, Benzo[1,3]dioxol-5-ylmethyl-carbamic acid dydrogesterone-11-yl ester], the “Human PR binding (pKi)” value [1] was 6.8, the “PS [100 nM] (% stimulation)” value ([2]; T47D cells) was 76.0% and the pEC50 ([2]; agonistic potency, T47D cells) was 7.0. For the same compound, the “PI [100 nM] (% inhibition)” value ([2]; T47D cells) was 6.0%.
`CC(=O)Nc1ccc(NC(=O)OC2C[C@]3(C)[C@@H](C(C)=O)CC[C@H]3[C@@H]3C=CC4=CC(=O)CC[C@@]4(C)[C@H]23)cc1` (some centres unmarked) [compound 82, (4-Acetylamino-phenyl)-carbamicacid dydrogesterone-11-yl ester] was tested, and the “Human PR binding (pKi)” value [1] was 6.6, the “PS [100 nM] (% stimulation)” value ([2]; T47D cells) was 0.0% and the “PI [100 nM] (% inhibition)” value ([2]; T47D cells) was 40.0%.
